Measured values reported in the METLIN SMRT retention time set (Domingo-Almenara et al. 2019).

Experiment: gradient 5% acetonitrile 3 min, to 50% in 2 min, to 85% in 15 min, held 3 min, 100 µL/min
Details: column: Zorbax Extend-C18 2.1 x 50 mm; eluents: water / acetonitrile, 0.1% formic acid
Procedure, shortened: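 The system's dead and dwell volumes were 40 μL and 900 μL, with a Zorbax Extend-C18 column (2.1 × 50 mm, 1.8 μm) run at 100 μL/min in water and acetonitrile containing 0.1% formic acid each. Pure standards were analyzed in mixtures of ~100 molecules by HPLC–quadrupole time-of-flight mass spectrometry in positive and negative ionization mode. Retention time was assigned from computationally picked, manually inspected adduct peaks.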

SMILES	RP-LC retention time [s]
CC(C)c1nnc2n1CCN(C(=O)c1ccc(Cl)s1)C2	661
COc1ccc(NC(=O)N2CCC3(CC2)NC(=O)c2cc(Cl)ccc2N3C)cc1	753
COc1ccc(C2CCCN2C(=O)c2ccn(C)n2)cc1 (centres undefined)	730
CCC(=O)N1CCCC1c1nc(CCOCC2CCCC2)no1 (centres undefined)	837
Cc1ccccc1-n1ccn(Cc2nc(-c3ccccc3)no2)c(=O)c1=O	809
CN(CCNC(=O)c1ccc2c(c1)N(S(C)(=O)=O)CC2)C1CCCCC1	610
CC(C)c1cc(C(=O)NC2CC2)n[nH]1	625
CC(C)CCNC(=O)c1cc2c(s1)N(C)CCC2	928
O=C1CCN(C2OC(CO)C(O)C2O)C(=O)N1 (centres undefined)	1040
COc1ccc(NC(=O)C2CCCN(Cc3nc(-c4cccs4)no3)C2)cc1Cl (centres undefined)	728
CCOC(=O)c1c(C)[nH]c(CCC(=O)NCCc2cccs2)c1C	822
CCN1CCN(c2cc(C(=O)O)c3cc(NS(=O)(=O)c4cc(C)c(C)cc4C)ccc3n2)CC1	629
CC1CCCN(c2nn(CC(=O)Nc3ccc4c(c3)OCCO4)c(=O)c3ccccc23)C1 (centres undefined)	1030
CCOC(=O)C1CCN(c2ncnc3c2cnn3-c2ccc(OC)cc2)CC1	952
O=C(Nc1cc(F)ccc1Cl)c1cnc(-c2ccccc2)nc1-c1ccncc1	1000
CC(=O)N1CCc2cc(S(=O)(=O)C(C)CC(=O)NC3CCN(Cc4ccccc4)CC3)ccc21 (centres undefined)	551
O=C(CN1CCN(Cc2ccccc2)C(=O)C1=O)N1CCN(c2cccc(Cl)c2)CC1	828
CCc1nn2c(CNC(=O)c3ccc(OC)c(F)c3)c(-c3ccccc3)nc2s1	912
O=C(Nc1ncc(Cc2ccc(Cl)cc2)s1)c1ccco1	869
Cc1ccc(C(=O)N2CCN(S(=O)(=O)c3cc(-c4noc(C5CCC5)n4)cs3)CC2)s1	1060
CC(C)(Oc1ccc(Cl)cc1)C(=O)OCn1nnc2ccccc2c1=O	1010
CCc1ccc(C2=C(C)C(N3CCC(C(=O)NC(C)C)CC3)=NS2(=O)=O)cc1	812
CC(=O)C1CC[C@H]2[C@@H]3CC[C@@H]4CC(=O)CC[C@]4(C)[C@H]3CC[C@]12C (some centres undefined)	1050
CC1CCN(S(=O)(=O)c2ccc3c(c2)CCCC(=O)N3CC(=O)N2CCN(C)CC2)CC1	656
COc1ccc(NC(=O)c2c(O)c3cccnc3n(-c3cccc(F)c3)c2=O)cc1	1190

SMILES	RP-LC retention time [s]
Cc1cc(C)cc(-n2ccn3c(CCC(=O)NCCc4c[nH]c5ccccc45)nnc3c2=O)c1	744
CC(C)n1cnc(S(=O)(=O)N2CCCC(C(=O)N3CCN(c4ncccn4)CC3)C2)c1 (centres undefined)	682
O=C(Nc1ccsc1-c1nnc(C2CC2)o1)c1ccoc1	1080
Cc1cc(N2CCOCC2)nc(Nc2ccc(NC(=O)C(C)Oc3ccccc3)cc2)n1 (centres undefined)	580
COc1ccc(-c2ccc(=O)n(CCNC(=O)c3ccno3)n2)cc1	628
Cc1sc(-c2nc(C(C)C)cs2)cc1S(=O)(=O)NCc1ccc2c(c1)OCO2	1130
Fc1ccc(C2CCNCC2COc2ccc3c(c2)OCO3)cc1 (centres undefined)	778
CC1CCCN(c2nc(=O)n(CC(=O)Nc3ccc4c(c3)OCCO4)c3ccccc23)C1 (centres undefined)	780
Cc1ccc(CNC(=O)c2cc3c(=O)n(C)ccc3n2C)o1	668
Cc1cc(C)c2nc(-c3ccc4ccccc4c3)cc(C(=O)O)c2c1	1310
Cc1cc(Cl)ccc1NC(=O)N1C[C@H](c2nc(-c3cccnc3)no2)[C@@H](C)C1	827
COc1ccc(Nc2nc(C(=O)Nc3ccc4c(c3)OCCO4)cs2)c(OC)c1	865
COc1ccccc1-c1noc(C2CCCN2C(=O)Nc2ccccc2Cl)n1 (centres undefined)	947
Cc1ccc(NC(=O)C2CC(=O)N(c3ccc4c(c3)CCN4C(=O)C3CC3)C2)c(C)c1 (centres undefined)	805
O=C(NC1CCN(Cc2ccccc2)CC1)c1nnc(-c2ccc(S(=O)(=O)N3CCCC3)cc2)o1	1190
CN(CC1CCCO1)S(=O)(=O)c1ccc(C(=O)Nc2sc3c(c2C#N)CCC3)cc1 (centres undefined)	957
CC(=O)Nc1ccc(SCCCC(=O)N2CCc3ccccc32)nn1	706
CC(C)n1c(=O)c(NCc2ccc(N3CCOCC3)cc2)nc2ccncc21	606
NC1CCN(O)C1=O (centres undefined)	621
CCOC(=O)C1CCCN(C(=O)CCC2CCCN(c3cc(NC4CC4)ncn3)C2)C1 (centres undefined)	666
O=C1[C@H]2CN(Cc3ccncc3)C[C@H]2C(=O)N1Cc1ccc2c(c1)OCO2	605
Cc1cc(N2CCCCC2)nc(N2CCN(S(=O)(=O)c3ccc(Br)cc3)CC2)n1	847
Cn1c(=O)c(C(=O)NCc2ccccc2Cl)nc2cccnc21	728
Cc1nnc(-c2ccc3ccn(CC(=O)NCC(C)c4ccccc4)c3c2)o1 (centres undefined)	793

Now from value to molecule:

RP-LC retention time [s]	SMILES
942	COc1ccccc1NC(=O)Cn1cccc1-c1nnc(C2CCC2)o1
996	COc1cc(Cl)c(C)cc1NC(=O)C1CCCN(c2ncnc3c2nc2n3CCCCC2)C1 (centres undefined)
615	CCCc1cc(N2CCN(c3ccccn3)CC2)n2nc3nc(C)cc(C)c3c2n1
785	Cc1cc(S(=O)(=O)N2CC(Cc3nncn3C3CCCC3)C2)ccc1Cl
848	O=C(CN1C(=O)CCCc2cc(S(=O)(=O)N3CCCC3)ccc21)NC1CCCCCC1
620	CCc1ccc(-c2cc(C(=O)N3CCN(C)CC3)[nH]n2)cc1
610	COCc1nncn1C1CN(C(=O)Cc2cc(OC)ccc2OC)C1
779	Cn1nc(CN(C(=O)c2ccccc2F)c2ccccc2)c2c1CCN(S(C)(=O)=O)C2
750	Cn1cc(S(=O)(=O)N2CCC(C(=O)Nc3ccc(F)cc3)CC2)cc1C(=O)N1CCCC1
781	CCSc1ccccc1C(=O)Nc1cc(C(C)(C)C)nn1CCO
945	COc1ccc(OC)c(S(=O)(=O)Nc2ccc(Br)cc2C)c1
1140	CCc1cc(C(=O)Nc2ccc(C)cc2F)nc2ccnn12
1170	O=S(=O)(NC1CCCCCC1)c1ccc(-c2cc(C(F)(F)F)on2)o1
921	Cc1ccc(CN2C(=O)COc3ccc(C(=O)NCc4ccc5c(c4)OCO5)cc32)cc1
960	COc1ccc(OC)c(S(=O)(=O)N2CCC(c3cc(-c4cccc(C)c4)n[nH]3)CC2)c1
972	CCc1ccc(S(=O)(=O)N2CCC(n3c(-c4ccco4)nc4cccnc43)C2)cc1 (centres undefined)
862	CCSC1=C(C#N)C(c2ccccc2Cl)C(C(=O)Nc2ccccc2C)=C(C)N1 (centres undefined)
832	Clc1ccc(OCc2nn3c(-c4ccccn4)nnc3s2)cc1
793	CCN(Cc1cn(C)nc1C)C(=O)C1CN(C(=O)c2ccccc2)CC12CCCCC2 (centres undefined)
700	Cc1cccc(-n2nc(C)c3sc(N(C)CC(=O)N4CCN(c5ccccn5)CC4)nc32)c1

RP-LC retention time [s]	SMILES
759	O=C(Cn1ccn2nc(-c3ccccc3)c(CO)c2c1=O)Nc1ccc2c(c1)OCCO2
706	Cc1nnc(-c2ccc3c(c2)OCO3)o1
803	CCOc1ccc(CC(=O)NC2CCN(c3cc(-c4ccc(Cl)cc4)[nH]n3)C2)cc1OCC (centres undefined)
1020	CCc1noc(-c2ccc(-n3ncc(C(=O)N4CCC(C)CC4)c3C)nc2)n1
625	O=C(c1ccccn1)N1CCC(n2c(-c3ccsc3)nc3cccnc32)C1 (centres undefined)
696	CS(=O)(=O)N1CCOc2ccc(NC(=O)C3CC3)cc2C1
831	CCCN1C(=O)Cc2ccccc2C1C(=O)NCc1ccccc1Br (centres undefined)
1040	O=C(Nc1nc2ccc([N+](=O)[O-])cc2s1)c1ccc(Br)s1
1410	CCOc1cccc(-c2noc(-c3nnn(Cc4nc(-c5cccc(C)c5)oc4C)c3C)n2)c1
775	O=C(NC(Cc1ccccc1)c1nnc(N2CCCCC2)o1)c1ccco1 (centres undefined)
567	O=C(Nc1ccc2cn[nH]c2c1)c1ccc(=O)[nH]n1
945	Cc1ccc2c(c1)N(S(C)(=O)=O)CCC(C(=O)Nc1cccc(C)c1C)O2 (centres undefined)
1020	CC(C)CCNC(=O)c1ccc(-c2nc3cccnc3n2C2CCCCC2)cc1
872	O=C(Cc1csc2nc(-c3ccccc3)cn12)NCc1cccc(Br)c1
804	O=C(NC1CCCCCC1)c1ccc2c(c1)nc1n2CCN(c2ccccc2)C1=O
661	Cc1ccc(CNC(=O)N2CCN(CCn3c(C(F)(F)F)nc4cccnc43)CC2)cc1
628	O=C(CCc1nnc2c3cc(-c4ccccc4)nn3ccn12)N1CCN(C2CCCCC2)CC1
766	CCN1C(=O)c2cc(C(=O)NCc3ccc(C)cc3)nn2CC1(C)C(=O)NC1CCCC1 (centres undefined)
673	CCOC(=O)C1CCN(C(=O)c2nc(-c3ccnc(N4CCCC4)c3)no2)CC1
883	COc1ccc(Cl)cc1NS(=O)(=O)c1cc2c(s1)CCN(C(=O)C1CC1)C2
